Data reported in patent US10385395B2, “Diagnostic tools for response to 6-thiopurine therapy” (THE REGENTS OF THE UNIVERSITY OF CALIFORNIA, priority 2012, dated 2019).

B1: IFN-y: recombinant cytokine (R&D Systems) added to a final concentration of 20 ng ml-1 (protein, UniProt P01579 24-161, looked up)
Interferon gamma: QDPYVKEAENLKKYFNAGHSDVADNGTLFLGILKNWKEESDRKIMQSQIVSFYFKLFKNFKDDQSIQKSVETIKEDMNVKFFNSNKKKRDDFEKLTNYSVTDLNVQRKAIHELIQVMAELSPAAKTGKRKRSQMLFRG

What was measured:
[1] = system: NK cells; conditions: Crohn's disease patients; Brogan et al. 1985; cited from earlier work
[2] = system: CD4+ T cell proliferation; test: T cell proliferation in the absence of NK cells with exogenous cytokines added; assay type: cell-based, human; conditions: cytokine added at 20 ng mL-1, three-day culture (FIG. 9)
Method: Before co-culture, round bottom 96-well plates were coated with anti-CD3/CD28 antibody (R&D Systems, Minneapolis, Minn.) in PBS at 1.5 ug ml^−1 at room temperature for 2 hours, or at 0.5 ug ml^−1 at 4° C. overnight. […] For transwell assay, 24-well plates were used; NT (cells were placed on the filter side of a 1.0 um pore-sized transwell (BD Falcon, San Jose, Calif.), and CFSE-stained T cells were placed on the plate side of the transwell.

| Molecule | depletion of NK cells by therapy compared to other lymphoid cell types [1] | CD4+ cell proliferation with exogenous cytokine [2] |
| --- | --- | --- |
| Nc1nc2nc[nH]c2c(=S)[nH]1 [6-thioguanine] | quickly and profoundly depleted |  |
| IL-6: recombinant cytokine (R&D Systems) added to a final concentration of 20 ng ml-1 |  | greatly facilitated |
| B1 |  | marginal effects |
